{"source": "paper PMC5483895", "about": "(Journal of Medicinal Chemistry, 2017)", "origin": "cited, not measured here", "molecules": {"B1": {"name": "CX3CL1: human CX3C chemokine (protein, UniProt P78423 25-397, looked up)", "Fractalkine": "QHHGVTKCNITCSKMTSKIPVALLIHYQQNQASCGKRAIILETRQHRLFCADPKEQWVKDAMQHLDRQAAALTRNGGTFEKQIGEVKPRTTPAAGGMDESVVLEPEATGESSSLEPTPSSQEAQRALGTSPELPTGVTGSSGTRLPPTPKAQDGGPVGTELFRVPPVSTAATWQSSAPHQPGPSLWAEAKTSEAPSTQDPSTQASTASSPAPEENAPSEGQRVWGQGQSPRPENSLEREEMGPVPAHTDAFQDWGPGSMAHVSVVPVSSEGTPSREPVASGSWTPKAEEPIHATMDPQRLGVLITPVPDAQAATRRQAVGLLAFLGLLFCLGVAMFTYQSLQGCPRKMAGEMAEGLRYIPRSCGSNSYVLVPV"}}, "key": {"CXCR4 [1]": {"test_system": "CXCR4", "conditions": "mutation of H203 5.42 in CXCR4, range over the ligands named"}, "CCR5 [2]": {"test_system": "CCR5", "conditions": "mutation of I198 5.42 in CCR5, range over all ligands named"}, "CXCR4 [3]": {"test_system": "CXCR4", "conditions": "CXCR4 virtual screening hits"}, "CCR5 [4]": {"test_system": "CCR5"}, "CXCR3 [5]": {"test_system": "CXCR3", "conditions": "CXCR3 mutant Y271 6.51 A"}, "CXCR3 [6]": {"test_system": "CXCR3", "conditions": "CXCR3 mutant W268 6.48 A"}, "CXCR4 [7]": {"test_system": "CXCR4", "conditions": "CXCR4 mutant I259 6.55 A"}, "CX3CR1": {"test_system": "CX3CR1", "conditions": "mutations of Lys14, Lys18, Phe49 of the chemokine"}}, "note": "Like-named read-outs stand apart in the source and are kept apart here.", "data": [{"molecule": "c1ccc(CNCc2ccc(CN3CCCNCCNCCCNCC3)cc2)nc1", "note": "[compound 2]", "values": [{"measurement": "fold effect on affinity/potency", "setting": "CXCR4 [1]", "result": "3–5 fold"}]}, {"molecule": "COC[C@@H](c1ccc(C(F)(F)F)cc1)N1CCN(C2(C)CCN(C(=O)c3c(C)ncnc3C)CC2)C[C@@H]1C", "note": "[compound 17, Vicriviroc]", "values": [{"measurement": "fold decrease in affinity and/or potency", "setting": "CCR5 [2]", "result": "3–125 fold"}]}, {"molecule": "Cc1ccc(-c2ccc3c(c2)C=C(C(=O)Nc2ccc(C[N+](C)(C)C4CCOCC4)cc2)CCC3)cc1.[Cl-]", "note": "[compound 19]", "values": [{"measurement": "fold decrease in affinity and/or potency", "setting": "CCR5 [2]", "result": "3–125 fold"}]}, {"molecule": "CC#CCN1C(=O)[C@H]([C@@H](O)C2CCCCC2)NC(=O)C12CCN(Cc1c(C)nn(-c3ccccc3)c1C)CC2", "note": "[compound 23]", "values": [{"measurement": "fold decrease in affinity and/or potency", "setting": "CCR5 [2]", "result": "3–125 fold"}]}, {"molecule": "Cc1ccc(-c2nc3n(c2/C=N/N=C(N)N)CCS3)cc1", "note": "[compound 76]", "values": [{"measurement": "affinity", "setting": "CXCR4 [3]", "result": 225, "unit": "µM"}]}, {"molecule": "Cc1nc(CN(C)CC2CCCN(CCc3ccccc3C)C2)c[nH]1", "note": "(stereo not shown) [compound 78]", "values": [{"measurement": "affinity", "setting": "CXCR4 [3]", "result": 0.31, "unit": "µM"}]}, {"molecule": "CCL3: CC chemokine", "values": [{"measurement": "fold effect on binding", "setting": "CCR5 [4]; CCR5 mutant W248 6.48 A", "result": 10, "unit": "fold"}, {"measurement": "fold effect on binding", "setting": "CCR5 [4]; CCR5 mutant Y251 6.51 A/I", "result": 7, "unit": "fold"}]}, {"molecule": "CXCL11: chemokine, CXCR3 ligand", "values": [{"measurement": "fold decrease of binding", "setting": "CXCR3 [5]", "result": "more than 10 fold"}, {"measurement": "fold decrease of potency", "setting": "CXCR3 [6]", "result": "more than 10 fold"}]}, {"molecule": "CXCL12: endogenous chemokine ligand of CXCR4", "values": [{"measurement": "fold effect on potency", "setting": "CXCR4 [7]", "result": 8, "unit": "fold"}]}, {"molecule": "Maraviroc [compound 16]", "values": [{"measurement": "fold decrease in affinity and/or potency", "setting": "CCR5 [2]", "result": "3–125 fold"}]}, {"molecule": "B1", "values": [{"measurement": "fold reduction of affinity for the receptor", "setting": "CX3CR1", "result": "more than 10 fold"}]}]}
